Laboratory results taken from ChEMBL document CHEMBL1122669, “Hypolipidemic activity of phthalimide derivatives. 7. Structure-activity studies of indazolone analogues” (1984).

Experiments:
Format in all cases: functional
Mus musculus [1] = assay: Reduction of serum cholesterol in CF1 male mice on day 16 following 20 mg/kg/day i.p. administration.; settings: route intraperitoneal
Mus musculus [2] = assay: Reduction of serum cholesterol in CF1 male mice on day 9 following 20 mg/kg/day i.p. administration.; settings: route intraperitoneal
Mus musculus [3] = assay: Reduction of serum triglycerides in CF1 male mice on day 16 following 20 mg/kg/day i.p. administration.; settings: route intraperitoneal
Mus musculus [4] = assay: Hypolipidemic effects in CF1 male mice at a dose 150 mg/(kg day), ip, percent control of serum cholesterol was determined on day 16
Mus musculus [5] = assay: Hypolipidemic effects in CF1 male mice at a dose 150 mg/(kg day), ip, percent control of serum triglyceride was determined on day 16
Mus musculus [6] = assay: Hypolipidemic effects in CF1 male mice at a dose 150 mg/(kg day), ip,percent control of serum cholesterol was determined on day 9

| Structure (SMILES) | Serum cholesterol, percent of control (Mus musculus [1]) | Serum cholesterol, percent of control (Mus musculus [2]) | Serum triglycerides, % of control (Mus musculus [3]) | Control (Mus musculus [4]) | Control (Mus musculus [5]) | Control (Mus musculus [6]) |
| --- | --- | --- | --- | --- | --- | --- |
| O=c1c2ccccc2[nH]n1CCO | 83% | 97% | 63% | – | – | – |
| Cn1[nH]c2ccccc2c1=O | 69% | 92% | 72% | – | – | – |
| CC(=O)c1cccc(Cn2[nH]c3ccccc3c2=O)c1 | 70% | 86% | 56% | – | – | – |
| Oc1n[nH]c2ccccc12 | 80% | 96% | 75% | – | – | – |
| CCn1[nH]c2ccccc2c1=O | 71% | 98% | 71% | – | – | – |
| CCCCn1[nH]c2ccccc2c1=O | 46% | 92% | 44% | – | – | – |
| O=c1c2ccccc2[nH]n1CCCO | 83% | 96% | 72% | – | – | – |
| CCCCn1[nH]c2ccc(C)cc2c1=O | 97% | 95% | 81% | – | – | – |
| CC(=O)c1ccccc1Cn1[nH]c2ccccc2c1=O | 60% | 98% | 41% | – | – | – |
| CCOC(=O)n1[nH]c(=O)c2ccccc21 | 60% | 78% | 61% | – | – | – |
| CCCCCn1[nH]c2ccccc2c1=O | 73% | 79% | 77% | – | – | – |
| CCCn1[nH]c2ccccc2c1=O | 68% | 92% | 77% | – | – | – |
| O=c1c2ccccc2[nH]n1Cc1ccccc1 | 72% | 83% | 58% | – | – | – |
| CCCCn1[nH]c2ccc(Cl)cc2c1=O | 74% | 76% | 83% | – | – | – |
| CCCCn1[nH]c2cc(Cl)ccc2c1=O | 75% | 98% | 69% | – | – | – |
| CC(=O)c1ccc(Cn2[nH]c3ccccc3c2=O)cc1 | 75% | 76% | 50% | – | – | – |
| O=C1NC(=O)c2ccccc21 [PHTHALIMIDE] | 57% | 63% | 44% | – | – | – |
| CCOC(=O)n1c2ccccc2c(=O)n1CCC(=O)O | 77% | 88% | 70% | – | – | – |
| CC(=O)CCn1[nH]c2ccccc2c1=O | 46% | 78% | 46% | – | – | – |
| CCOC(=O)C(C)(C)Oc1ccc(Cl)cc1 [CLOFIBRATE] | – | – | – | 87% | 75% | 92% |
